# Assay results published in patent EP0476120B1, “PROCESS FOR PREPARING EQUIMOLAR SALTS OF ASPARTIC ACID AND MAGNESIUM, MAGNESIUM ASPARTATE SALT OBTAINED BY SAID PROCESS AND ITS APPLICATIONS” (LA[…] SPINDLER, priority 1990, dated 1991).
# Read-outs that look alike come from different tables or passages of the source.
# What was measured:
# souris [1] = conditions: mouse; for nombre de redressements, Total (moyenne): 3 min in cylinder
# Source text: Les scores d'activité sont fonction de la surface à explorer. Ils sont également fonction de deux motivations contradictoires : la curiosité et la crainte. Il faut enfin savoir que lorsque la surface offerte permet une activité "horizontale" (marche) la curiosité parait l'emporter; par contre lorsque la surface est réduite et conduit à une activité "verticale" (redressements le long des parois d'un cylindre) il semble que la crainte anxieuse soit davantage présente et conduise à une activité soit diminuée, soit cyclique, et apparemment sans focalisation.
# (§1) Ces études ont été réalisées chez des souris mâles, de souche NMRI-Han, réparties au hasard en lots de 15 souris (séries traitées) et 20 souris (série contrôle).
# Au sortir de l'actimètre, les souris sont placées dans un cylindre en verre (hauteur 30 cm, diamètre 9 cm) L'exploration anxiogène a été mesurée par le nombre de redressements au cours de la première minute passée dans le cylindre, l'activité basale anxiogène étant considérée dans la même enceinte, entre 1 et 3 minutes.
# (§2) Les doses ont été calculées selon une progression géométrique de base 700 (correspondant au 1/10 de la DL 50) et de raison 2, soit respectivement 175, 350, 700 et 1400 mg.kg⁻¹.
# (§3) Les traitements sont réalisés 60 minutes avant le test.
# (§4) Il est identique à celui décrit dans l'exemple précédent.
# (§5) Les doses ont été calculées selon une progression géométrique de base 700 (correspondant au 1/10 de la DL 50) et de raison 2, soit respectivement 10,95; 21,9; 43,8; 87,5; 175; 350; 700 mg/kg. […] Les derniers traitements ont été réalisés 60 minutes avant le test.
# souris [2] = conditions: for Animaux tombés (%): controls 20,0
# Protocol: Le test dit du "rota-rod" permet de juger le tonus musculaire et la coordination motrice de souris placées sur une tige tournant à vitesse constante.
# as §1
# La DA 50 s'exprime par la dose qui provoque en moins de 3 minutes la chute de 50 p. 100 des souris placées sur une tige en bois tournant à une vitesse de 16 tours/min (diamètre 1,7 cm). Ce test qui permet de juger de la coordination motrice des souris est adapté de la technique décrite par N.W. DUNHAN and T.S. MIYA (J. Am. Pharm. Assoc. 1957, 46 : 208)
# as §2, §3, §4, §5
# souris [3] = conditions: mouse; for Nombre de passages "punis" (moyenne): 60 min before test, controls 5,8
# Source text: Le test est pratiqué chez des souris NMRI-HAN soumises à une diète hydrique préalable de 18 heures et réparties en séries de 15.
# L'appareillage utilisé consiste en une boite en plexiglas dont le sol est constitué de 4 plaques métalliques séparées les unes des autres. Un circuit d'alimentation permet d'établir une différence de potentiel entre deux plaques adjacentes grâce à un contacteur. Le test est pratiqué en plaçant doucement une souris sur une des plaques du fond de l'appareil ; les plaques sont électrifiées chaque fois que la souris passe de l'une à l'autre, de telle sorte qu'elle reçoit alors un choc électrique au niveau des pattes. Les paramètres du choc sont les suivants : durée de l'impulsion électrique égale à 0,5 seconde ; intensité égale à 0,6 milliampères. Ce choc induit chez les animaux une réaction motrice évidente de fuite, la souris traversant souvent 2 à 3 plaques successivement. Les conditions expérimentales adoptées ont été les suivantes : exploration libre pendant 15 secondes, traversée punie pendant la minute suivante, les résultats étant exprimés en nombre de passages "punis" pendant cette minute. Soixante souris ont été réparties de la façon suivante :
# Les administrations ont été réalisées par voie intra-gastrique, à partir de solutions aqueuses, sous un volume constant de 20 ml.kg⁻¹, 60 minutes avant le début du test. Les animaux contrôles ont reçu un même volume d'eau distillée.
# Les administrations ont été réalisées par voie intra-gastrique, à partir de solutions aqueuses, sous un volume constant de 20 ml.kg⁻¹ par produit 60 minutes avant le début du test. Les animaux contrôles ont reçu un même volume d'eau distillée.
# Dans un premier temps a été calculée la DA 50 (dose anxiolytique 50) du Diazépam (Valium® 10 mg - Roche, ampoule 2ml) seul, administré à des doses suivant une progression géométrique de base 0,25 et de raison 2, soit respectivement 0,25, 0,5 l et 2 mg.kg⁻¹.
# La DA 50 est déterminée à partir du pourcentage d'animaux tranquillisés. Est considéré comme tranquillisé tout animal dont le nombre de passages punis est égal ou supérieur à 9, c'est-à-dire à une valeur représentant une augmentation d'au moins 50 % par rapport au score moyen d'animaux non traités.
# Toutes les administrations ont été réalisées par voie intra-gastrique à partir de solutions aqueuses, sous un volume constant de 20 ml.kg⁻¹ (eau distillée pour le groupe contrôle). […] La veille du test, les souris sont soumises à une diète hydrique de 18 heures. La dernière ingestion est pratiquée une heure avant l'étude, concomitamment avec le diazépam (Valium® 10 mg - Roche, ampoules de 2 ml).
# [4] = repeated daily dosing (13 days), 10.95 mg/kg P.O., last dose 60 min before test
# [5] = repeated daily dosing (13 days), 21.9 mg/kg P.O., last dose 60 min before test
# [6] = repeated daily dosing (13 days), 43.8 mg/kg P.O., last dose 60 min before test
# [7] = repeated daily dosing (13 days), 87.5 mg/kg P.O., last dose 60 min before test
# [8] = repeated daily dosing (13 days), 175 mg/kg P.O., last dose 60 min before test
# [9] = repeated daily dosing (13 days), 350 mg/kg P.O., last dose 60 min before test
# [10] = repeated daily dosing (13 days), 700 mg/kg P.O., last dose 60 min before test
# [11] = single dose 175 mg.kg⁻¹ P.O., 60 min before test
# [12] = single dose 350 mg.kg⁻¹ P.O., 60 min before test
# [13] = single dose 700 mg.kg⁻¹ P.O., 60 min before test
# [14] = single dose 1400 mg.kg⁻¹ P.O., 60 min before test
substance,measurement,setting,value
α-β-aspartate de magnésium,"nombre de redressements, 1ère minute (moyenne)",souris [1]; [4],16
same,"nombre de redressements, 2ème minute (moyenne)",souris [1]; [4],11
same,"nombre de redressements, 3ème minute (moyenne)",souris [1]; [4],8
same,"nombre de redressements, Total (moyenne)",souris [1]; [4],35
same,"nombre de redressements, 1ère minute (moyenne)",souris [1]; [5],14
same,"nombre de redressements, 2ème minute (moyenne)",souris [1]; [5],9
same,"nombre de redressements, 3ème minute (moyenne)",souris [1]; [5],6
same,"nombre de redressements, Total (moyenne)",souris [1]; [5],29
same,"nombre de redressements, 1ère minute (moyenne)",souris [1]; [6],13
same,"nombre de redressements, 2ème minute (moyenne)",souris [1]; [6],9
same,"nombre de redressements, 3ème minute (moyenne)",souris [1]; [6],8
same,"nombre de redressements, Total (moyenne)",souris [1]; [6],30
same,"nombre de redressements, 1ère minute (moyenne)",souris [1]; [7],13
same,"nombre de redressements, 2ème minute (moyenne)",souris [1]; [7],9
same,"nombre de redressements, 3ème minute (moyenne)",souris [1]; [7],8
same,"nombre de redressements, Total (moyenne)",souris [1]; [7],30
same,"nombre de redressements, 1ère minute (moyenne)",souris [1]; [8],12
same,"nombre de redressements, 2ème minute (moyenne)",souris [1]; [8],9
same,"nombre de redressements, 3ème minute (moyenne)",souris [1]; [8],8
same,"nombre de redressements, Total (moyenne)",souris [1]; [8],29
same,"nombre de redressements, 1ère minute (moyenne)",souris [1]; [9],13
same,"nombre de redressements, 2ème minute (moyenne)",souris [1]; [9],10
same,"nombre de redressements, 3ème minute (moyenne)",souris [1]; [9],8
same,"nombre de redressements, Total (moyenne)",souris [1]; [9],31
same,"nombre de redressements, 1ère minute (moyenne)",souris [1]; [10],14
same,"nombre de redressements, 2ème minute (moyenne)",souris [1]; [10],10
same,"nombre de redressements, 3ème minute (moyenne)",souris [1]; [10],9
same,"nombre de redressements, Total (moyenne)",souris [1]; [10],33
same,"nombre de redressements, 1ère minute (moyenne)",souris [1]; [11],14
same,"nombre de redressements, 2ème minute (moyenne)",souris [1]; [11],8
same,"nombre de redressements, 3ème minute (moyenne)",souris [1]; [11],7
same,"nombre de redressements, Total (moyenne)",souris [1]; [11],29
same,"nombre de redressements, 1ère minute (moyenne)",souris [1]; [12],15
same,"nombre de redressements, 2ème minute (moyenne)",souris [1]; [12],9
same,"nombre de redressements, 3ème minute (moyenne)",souris [1]; [12],6
same,"nombre de redressements, Total (moyenne)",souris [1]; [12],30
same,"nombre de redressements, 1ère minute (moyenne)",souris [1]; [13],15
same,"nombre de redressements, 2ème minute (moyenne)",souris [1]; [13],augmente significativement
same,"nombre de redressements, 3ème minute (moyenne)",souris [1]; [13],7
same,"nombre de redressements, Total (moyenne)",souris [1]; [13],32
same,"nombre de redressements, 2ème minute (moyenne)","souris [1]; single dose 700 mg.kg⁻¹ P.O., 60 min before test, listed as Mag",10
same,"nombre de redressements, 1ère minute (moyenne)",souris [1]; [14],15
same,"nombre de redressements, 2ème minute (moyenne)",souris [1]; [14],augmente significativement
same,"nombre de redressements, 3ème minute (moyenne)",souris [1]; [14],8
same,"nombre de redressements, Total (moyenne)",souris [1]; [14],34
same,"nombre de redressements, 2ème minute (moyenne)","souris [1]; single dose 1400 mg.kg⁻¹ P.O., 60 min before test, listed as Mag",11
same,Animaux tombés (%),"souris [2]; mouse, 10,95 mg.kg⁻¹ P.O x13","26,6%"
same,Animaux tombés (%),"souris [2]; mouse, 21,9 mg.kg⁻¹ P.O x13","33,3%"
same,Animaux tombés (%),"souris [2]; mouse, 43,8 mg.kg⁻¹ P.O x13","46,6%"
same,Animaux tombés (%),"souris [2]; mouse, 67,5 mg.kg⁻¹ P.O x13","33,3%"
same,Animaux tombés (%),"souris [2]; mouse, 175,0 mg.kg⁻¹ P.O x13","46,6%"
same,Animaux tombés (%),"souris [2]; mouse, 350,0 mg.kg⁻¹ P.O x13","33,3%"
same,Animaux tombés (%),"souris [2]; mouse, 700,0 mg.kg⁻¹ P.O x13","33,3%"
same,souris qui chutent de la tige tournante au cours des 3 minutes,"souris [2]; mouse, single dose 175 mg.kg⁻¹ P.O., controls 25 %",13%
same,"DA 50 (réduction du tonus musculaire, rota-rod)","souris [2]; mouse, single dose P.O., Litchfield-Wilcoxon, confidence limits (5 p. 100) 343 - 1091 mg.kg⁻¹",612 mg/kg
same,"Nombre de passages ""punis"" (moyenne)",souris [3]; single dose 300 mg.kg⁻¹ P.O.,n'accroît pas significativement
same,"Nombre de passages ""punis"" (moyenne)","souris [3]; single dose 300 mg.kg⁻¹ P.O., listed as Mag","6,4"
same,"Nombre de passages ""punis"" (moyenne)",souris [3]; single dose 600 mg.kg⁻¹ P.O.,accru significativement
same,"Nombre de passages ""punis"" (moyenne)","souris [3]; single dose 600 mg.kg⁻¹ P.O., listed as Mag","8,3"
same,"Nombre de passages ""punis"" (moyenne)",souris [3]; single dose 1200 mg.kg⁻¹ P.O.,accru significativement
same,"Nombre de passages ""punis"" (moyenne)","souris [3]; single dose 1200 mg.kg⁻¹ P.O., listed as Mag","7,5"
same,dose optimum (propriétés tranquillisantes mineures),souris [3]; single dose P.O.,600 mg/kg
